Laboratory results from patent US20040142851A1, “Hydrazinopeptoids and their uses for treating cancers” (priority 2001, published 2004).
Square brackets hold non-standard residues; d marks the D form. Peptide text beside a SMILES is read from it. * marks the point of attachment. Nle = CCCC[C@H](N)C(=O)O; Cbz = O=C(OCc1ccccc1)*

Tests used:
[1] = tested on: XL2 cells; test: FACS analysis, % of cells blocked in G2/M in XL2 cell cultures; assay type: cell-based, Xenopus; conditions: for concentration in the medium necessary to obtain a blockage in mitosis / percentage of cells blocked in mitosis, compared with ALLN (in words): XL2 cell cultures
Protocol: The molecules synthesized were tested in vitro on the proteolytic activities described of the proteasome, then in vivo on Xenopus (XL2) cell cultures. Knowledge of the cell cycle of XL2 cells has made it possible to carry out synchronization experiments and also to evaluate the duration of each of the phases of the cycle. […]

[2] = target: purified proteasome (chymotrypsin activity) (Homo sapiens, UniProt P28074); test: Inhibition of the chymotrypsin catalytic activity of the purified proteasome; assay type: biochemical
From the text: In vitro analyses of the inhibitory potentialities of the Hydrazinoazapeptoids synthesized vis-à-vis the enzyme activities of the proteasome.
The inhibitory potentialities of the hydrazinoazapeptoids have been quantified with respect to the chymotrypsin enzyme activities of the purified proteasome. The results are expressed as percentages of activity inhibition.
Measurement of the inhibitory properties of the synthesized compounds on the chymotrypsin catalytic activity of the purified proteasome.

[3] = tested on: XL2 cells; test: Fluorescence microscopy analysis of the stages of mitosis; assay type: cell-based, Xenopus; conditions: for % Anaphase + Telophase / % Metaphase / % Prophase: 50 cells blocked in mitosis
Protocol: The molecules synthesized were tested in vitro on the proteolytic activities described of the proteasome, then in vivo on Xenopus (XL2) cell cultures. Knowledge of the cell cycle of XL2 cells has made it possible to carry out synchronization experiments and also to evaluate the duration of each of the phases of the cycle.
Observation of the nuclear content makes it possible to determine the different stages of the mitosis. The following results were obtained using 50 cells blocked in mitosis. The first 7 inhibitors were studied using fluorescence microscopy.

[4] = tested on: mouse leukaemia cell cultures; test: Antiproliferative effect on mouse leukaemia cell cultures; assay type: cell-based
From the text: We have analyzed the effect of the retro compounds on mouse leukaemia cell cultures and confirm that among these products, three compounds have an antiproliferative effect. This effect has been observed on two other cell types, rat hepatocytes and a human breast cancer line.

[5] = tested on: cell cycle progression (mitosis); conditions: lower concentrations only slow down the mitosis; cited from earlier work

COC(=O)N(CC(C)C)NC(=O)CN(CC(C)C)NC(=O)OC(C)(C)C [P2]
% of cells blocked in G2/M ([1]; 160 μM, 7 h): 6.7%
inhibition at 2000 µM ([2]; 2 mM compound): 47%
% Anaphase + Telophase [3]: 46%
% Metaphase [3]: 36%
% Prophase [3]: 18%

o-B(OH)2-Ph-HC═N^αhPhe-N-azaLeu-Z [PR7]
effect on proliferation (in words) [4]: proliferation inhibitors
effect on viability of the cells / cell death (in words) [4]: do not affect the viability of the cells

CC(C)CN(CC(=O)N(CC(C)C)NC(N)=O)NC(=O)OC(C)(C)C [P7, Boc-N^αhLeu-N-azaLeu-CONH2]
% of cells blocked in G2/M ([1]; 167 μM, 7 h): 12.3%
inhibition at 2000 µM ([2]; 2 mM compound): 23%
inhibitory selectivity during the different stages of mitosis (in words) [3]: much less selective
% Anaphase + Telophase [3]: 38%
% Metaphase [3]: 35%
% Prophase [3]: 27%
melting point: 138 °C

CC(C)CN(CC(=O)N(CC(C)C)NC(=O)CC#N)NC(=O)OC(C)(C)C [P12]
% of cells blocked in G2/M ([1]; 156 μM, 7 h): 23.5%
inhibition at 2000 µM ([2]; 2 mM compound): 48%

CC(C)CN(CC(=O)NN(CC(C)C)C(=O)C(F)(F)F)NC(=O)OC(C)(C)C [P1, Boc-N^αhLeu-azaLeu-CF3]
% of cells blocked in G2/M ([1]; 145 μM, 7 h): 9.2%
inhibition at 2000 µM ([2]; 2 mM compound): 29%
% Anaphase + Telophase [3]: 51%
% Metaphase [3]: 35%
% Prophase [3]: 14%
melting point: 105 °C

BrH2COC—N^αhPhe-N-azaLeu-Z [PR2]
effect on proliferation (in words) [4]: inhibit proliferation
effect on viability of the cells / cell death (in words) [4]: cause cell death

m-B(OH)2-Ph-HC═N^αhPhe-N-azaLeu-Z [PR8]
effect on proliferation (in words) [4]: inhibit proliferation
effect on viability of the cells / cell death (in words) [4]: cause cell death

CCOC(=O)C(=O)N(CC(C)C)NC(=O)CN(CC(C)C)NC(=O)OC(C)(C)C [P5, Boc-N^αhLeu-azaLeu-CO2Et]
% of cells blocked in G2/M ([1]; 144 μM, 7 h): 5.2%
inhibition at 2000 µM ([2]; 2 mM compound): 32%
% Anaphase + Telophase [3]: 37%
% Metaphase [3]: 45%
% Prophase [3]: 18%
melting point: 147 °C

CCCC[C@@H](C=O)NC(=O)[C@H](CC(C)C)NC(=O)[C@H](CC(C)C)NC(C)=O [ALLN, N-acetyl-leucinyl-leucinyl-norleucinal, reference compound] (Ac-Leu-Leu-[Nle]-aldehyde)
% of cells blocked in G2/M ([1]; 100 μM, 7 h): 53%
concentration in the medium necessary to obtain a blockage in mitosis [1]: 100 µM
% inhibition of chymotrypsin activity of the purified proteasome ([2]; 1 mM compound): 91%
inhibition at 1000 µM ([2]; 1 mM compound): 90%
concentration producing an extended stop in mitosis [5]: > 50 µg/mL
% Anaphase + Telophase [3]: 3%
% Metaphase [3]: 83%
% Prophase [3]: 15%

CC(C)CN(CC(=O)N(CC(C)C)NC(=O)CBr)NC(=O)OC(C)(C)C [P14, Boc-N^αhLeu-N-azaLeu-CH2Br]
% of cells blocked in G2/M ([1]; 2 μM, 0.5 h): 48.2%
% of cells blocked in G2/M ([1]; 4 μM, 0.5 h): 44.8%
% of cells blocked in G2/M ([1]; 11 μM, 0.5 h): 47.4%
% of cells blocked in G2/M ([1]; 22 μM, 0.5 h): 46.2%
% of cells blocked in G2/M ([1]; 45 μM, 0.5 h): 48.3%
% of cells blocked in G2/M ([1]; 91 μM, 0.5 h): 50.2%
% of cells blocked in G2/M ([1]; 137 μM, 1 h): 50.2%
concentration in the medium necessary to obtain a blockage in mitosis [1]: 2 µM
percentage of cells blocked in mitosis, compared with ALLN (in words) [1]: activity comparable to that of the ALLN
% inhibition of chymotrypsin activity of the purified proteasome ([2]; 2 mM compound): 71%
inhibition at 2000 µM ([2]; 2 mM compound): 70%

Z-N^αhLeu-N-azaPhe-CH2Br [P21]
effect on proliferation (in words) [4]: proliferation inhibitors
effect on viability of the cells / cell death (in words) [4]: do not affect the viability of the cells

CC(C)CN(CC(=O)N(Cc1ccccc1)NC(=O)CBr)NC(=O)OC(C)(C)C [P17, Boc-N^αhLeu-N-azaPhe-COCH2Br]
% of cells blocked in G2/M ([1]; 21 μM, 0.5 h): 46.8%
% of cells blocked in G2/M ([1]; 42 μM, 0.5 h): 47.3%
% of cells blocked in G2/M ([1]; 85 μM, 0.5 h): 50.9%
% of cells blocked in G2/M ([1]; 127 μM, 0.5 h): 42.8%
% of cells blocked in G2/M ([1]; 127 μM, 1 h): 41.7%
% of cells blocked in G2/M ([1]; 127 μM, 2 h): 38.3%
percentage of cells blocked in mitosis, compared with ALLN (in words) [1]: activity comparable to that of the ALLN
% inhibition of chymotrypsin activity of the purified proteasome ([2]; 2 mM compound): 80%
inhibition at 2000 µM ([2]; 2 mM compound): 70%
melting point: 135 °C

CC(C)CN(CC(=O)N(CC(C)C)NC=O)NC(=O)OC(C)(C)C [P13, Boc-N^αhLeu-N-azaLeu-H]
% of cells blocked in G2/M ([1]; 174 μM, 7 h): 20.8%
inhibition at 2000 µM ([2]; 2 mM compound): 35%
melting point: 124 °C

F3COC—N^αhLeu-N-azaLeu-Z [PR5]
effect on proliferation (in words) [4]: inhibit proliferation
effect on viability of the cells / cell death (in words) [4]: cause cell death

BrH2COC—N^αhPhe-azaLeu-Z [PR3]
effect on proliferation (in words) [4]: inhibit proliferation
effect on viability of the cells / cell death (in words) [4]: cause cell death

CC(C)CN(CC(=O)N(CC(N)=O)CC(C)C)NC(=O)OC(C)(C)C [P6]
% of cells blocked in G2/M ([1]; 167 μM, 7 h): 9.2%
inhibition at 2000 µM ([2]; 2 mM compound): 38%
inhibitory selectivity during the different stages of mitosis (in words) [3]: mostly blocks cells at the end of mitosis
% Anaphase + Telophase [3]: 58%
% Metaphase [3]: 24%
% Prophase [3]: 18%

CC(C)CN(CC(=O)N(CC(C)C)NC(=O)C(F)(F)F)NC(=O)OC(C)(C)C [P8, Boc-N^αhLeu-N-azaLeu-CF3]
% of cells blocked in G2/M ([1]; 146 μM, 7 h): 19.1%
inhibition at 2000 µM ([2]; 2 mM compound): 28%
melting point: 110 °C

CC(C)CN(CC(=O)N(CC(C)C)/N=C/c1ccccc1B(O)O)NC(=O)OC(C)(C)C [P15o, Boc-N^αhLeu-N-azaLeu-CH-Ph-o-B(OH)2]
melting point: 159 °C

CC(C)C[C@@H](C=O)NC(=O)[C@H](CC(C)C)NC(=O)[C@H](CC(C)C)NC(=O)OCc1ccccc1 [MG132, benzyloxycarbonyl leucinyl-leucinyl-leucinal, reference compound] (Cbz-Leu-Leu-Leu-aldehyde)
% of cells blocked in G2/M ([1]; 50 μM, 7 h): 60.6%

o-B(OH)2-Ph-HC═N^αhLeu-N-azaLeu-Z [PR6]
effect on proliferation (in words) [4]: proliferation inhibitors
effect on viability of the cells / cell death (in words) [4]: do not affect the viability of the cells

CC(C)CN(CC(=O)N(CC(C)C)/N=C/c1cccc(B(O)O)c1)NC(=O)OC(C)(C)C [P15, Boc-N^αhLeu-N-azaLeu-CH-Ph-m-B(OH)2]
% of cells blocked in G2/M ([1]; 133 μM, 7 h): 35.8%
inhibition at 2000 µM ([2]; 2 mM compound): 38%

CC(C)CN(CC(=O)N(CC(C)C)/N=C/c1ccc(B(O)O)cc1)NC(=O)OC(C)(C)C [P15p, Boc-N^αhLeu-N-azaLeu-CH-Ph-p-B(OH)2]
melting point: 186 °C

CCCCN(NC(=O)C(=O)OCC)C(=O)CN(CC(C)C)NC(=O)OC(C)(C)C [P3, Boc-N^αhLeu-N-azaNorleu-CO2Et]
% of cells blocked in G2/M ([1]; 144 μM, 4 h): 14.9%
% of cells blocked in G2/M ([1]; 144 μM, 6 h): 15.2%
% of cells blocked in G2/M ([1]; 144 μM, 8 h): 13.8%
inhibition at 2000 µM ([2]; 2 mM compound): 31%
% Anaphase + Telophase [3]: 53%
% Metaphase [3]: 26%
% Prophase [3]: 21%
melting point: 105 °C

CCSCC(=O)NN(CC(C)C)C(=O)CN(CC(C)C)NC(=O)OC(C)(C)C [P16]
% of cells blocked in G2/M ([1]; 143 μM, 7 h): 24.2%
inhibition at 2000 µM ([2]; 2 mM compound): 34%

CCOC(=O)C(=O)NN(CC(C)C)C(=O)CN(CC(C)C)NC(=O)OC(C)(C)C [P9, Boc-N^αhLeu-N-azaLeu-CO2Et]
% of cells blocked in G2/M ([1]; 144 μM, 7 h): 14.1%
inhibition at 2000 µM ([2]; 2 mM compound): 30%

PhCO—N^αhLeu-N-azaLeu-CF3 [P11]
% of cells blocked in G2/M ([1]; 144 μM, 7 h): 17.2%
% inhibition of chymotrypsin activity of the purified proteasome ([2]; 2 mM compound): 40%

Z-N^αhLeu-N-azaLys-COCH2Br [P22]
effect on proliferation (in words) [4]: inhibit proliferation
effect on viability of the cells / cell death (in words) [4]: cause cell death

PhCO—N^αhLeu-N-azaLeu-CO2Et [P10]
% of cells blocked in G2/M ([1]; 143 μM, 7 h): 23.1%
% inhibition of chymotrypsin activity of the purified proteasome ([2]; 2 mM compound): 42%

CCCCN(NC(=O)C(F)(F)F)C(=O)CN(CC(C)C)NC(=O)OC(C)(C)C [P4, Boc-N^αhLeu-N-azaNorleu-CF3]
% of cells blocked in G2/M ([1]; 145 μM, 4 h): 16.5%
% of cells blocked in G2/M ([1]; 145 μM, 8 h): 13.4%
inhibition at 2000 µM ([2]; 2 mM compound): 29%
% Anaphase + Telophase [3]: 42%
% Metaphase [3]: 42%
% Prophase [3]: 16%
